Data from patent US20230310388A1, “Methods and Compositions for Treating Fungal Infections” (Neoculi Pty Ltd, priority 2020, published 2023).
“And” between values parts separate entries of the source, which are not always exact repeats. Equal entries are not always repeated.

How the values were obtained:
Cryptococcus neoformans [1] = assay: CLSI broth microdilution MIC (Example 6); assay type: cell-based
Method: (§1) Antifungal minimum inhibitory concentration (MIC) testing was undertaken as recommended by the CLSI (1). Briefly, antifungal susceptibility tests were performed for amphotericin B, robenidine (NCL812) and 10 robenidine analogs (NCL023, NCL024, NCL097, NCL113, NCL115, NCL195, NCL219, NCL220, NCL259, NCL265) by standard broth microdilution method (CLSI) in RPMI 1640. Various concentrations (ranging from high to low) of the selected compounds were prepared in RPMI 1640 medium by double dilution in 96-well microtitre plates. Each well contained an inoculum of approximately 2×10^3 cells/mL. The wells without addition of drugs served as negative (no inoculum) and positive (inoculum only) growth controls. Microtitre plates were incubated at 35° C. for 24-48 hours. […] Antifungal MICs were determined for each isolate in duplicate; if the values obtained were different, the MIC test was repeated a third time.

Candida albicans [2] = assay: CLSI broth microdilution MIC (Example 6); assay type: cell-based
Method: as §1

C. gattii = assay: CLSI broth microdilution MIC (Example 6); assay type: cell-based, Cryptococcus gattii
Method: as §1

[3] = system: Candida albicans ATCC14053; assay: Broth micro-dilution screen at 16 μg/mL and MIC (Example 9); assay type: cell-based; conditions: for MIC: C. albicans ATCC14053, test range 0.25-64 μg/mL, duplicate; for Screen at 16 μg/mL: single concentration 16 μg/mL, Growth or No growth of C. albicans ATCC14053
Method: The antifungal activity of 201 NCL analogs against Candida albicans ATCC14053 in vitro was investigated. A broth micro-dilution method was used, according to CLSI guidelines as described. NCL analogs were dissolved in DMSO and originally screened at a single concentration of 16 μg/mL.

Cryptococcus neoformans [4] = assay: CLSI broth microdilution MIC (Example 4); assay type: cell-based
Method: (§2) Antifungal minimum inhibitory concentration (MIC) testing was undertaken as recommended by the CLSI. Briefly, antifungal susceptibility tests were performed for amphotericin B, robenidine (NCL812) and robenidine (NCL) analogs (NCL004, NCL020, NCL023, NCL024, NCL062, NCL094, NCL097, NCL110, NCL113, NCL114, NCL115, NCL135, NCL139, NCL180, NCL181, NCL195, NCL219, NCL220, NCL228, NCL247, NCL250, NCL259, NCL260, NCL263, NCL265, NCL269, NCL274) by standard broth microdilution method (CLSI) in RPMI 1640. Various concentrations (ranging from high to low) of the selected compounds were prepared in RPMI 1640 medium by double dilution in 96-well microtitre plates. Each well contained an inoculum of approximately 2×10^3 cells/mL. The wells without addition of drugs served as negative (no inoculum) and positive (inoculum only) growth controls. Microtitre plates were incubated at 35° C. for 24-48 hours. […] Antifungal MICs were determined for each isolate in duplicate; if the values obtained were different, the MIC test was repeated a third time.

Candida albicans [5] = assay: CLSI broth microdilution MIC (Example 4); assay type: cell-based; conditions: for antifungal activity against the two isolates of Candida albicans: summary in words
Method: as §2

Cryptococcus neoformans [6] = assay: CLSI broth microdilution MIC (Example 5); assay type: cell-based
Method: as §1, with “CLSI.” for “CLSI (1).”, “and” for “and 10”, “(NCL23, NCL24, NCL97,” for “(NCL023, NCL024, NCL097,”

Candida albicans [7] = assay: CLSI broth microdilution MIC (Example 5); assay type: cell-based
Method: as §1, with “CLSI.” for “CLSI (1).”, “and” for “and 10”, “(NCL23, NCL24, NCL97,” for “(NCL023, NCL024, NCL097,”

[8] = human clinical isolate C. neoformans serotype A/D hybrid
[9] = human clinical isolate C. neoformans var grubii 16-90050434
[10] = human clinical isolate C. neoformans var grubii 17-90028233
[11] = human clinical isolate C. neoformans var grubii 17-93996464
[12] = human clinical isolate C. neoformans var grubii 17-93996964
[13] = human clinical isolate C. gatti 17-90232099
[14] = human clinical isolate C. gattii 16-90050373
[15] = human clinical isolate C. gattii 17-90028211
[16] = human clinical isolate C. gattii 17-90028217
[17] = human clinical isolate C. gattii 17-90028242
[18] = clinical isolate C. albicans 12-93301752 Azole Resistant
[19] = clinical isolate C. albicans 14-90045999 Azole Resistant
[20] = clinical isolate C. albicans 15-45171061
[21] = clinical isolate C. albicans 15-91329871
[22] = clinical isolate C. albicans 16-24136919 Azole Resistant
[23] = clinical isolate C. albicans 16-46177400
[24] = clinical isolate C. albicans 16-90050810
[25] = clinical isolate C. albicans 16-90054237
[26] = clinical isolate C. albicans 18-144-00196
[27] = clinical isolate C. albicans 18-148-08188 Azole Resistant

Structure (SMILES)	MIC (Cryptococcus neoformans [1]; Cryptococcus neoformans SA1) [µg/mL]	MIC (Cryptococcus neoformans [1]; Cryptococcus neoformans SA2) [µg/mL]	MIC (Cryptococcus neoformans [1]; [9]) [µg/mL]	MIC (Cryptococcus neoformans [1]; [10]) [µg/mL]	MIC (Cryptococcus neoformans [1]; [11]) [µg/mL]	MIC (Cryptococcus neoformans [1]; [12]) [µg/mL]	MIC (Candida albicans [2]; C. albicans SA3) [µg/mL]	MIC (Candida albicans [2]; Candida albicans ATCC 90028) [µg/mL]	MIC (C. gattii; [13]) [µg/mL]	MIC (C. gattii; [14]) [µg/mL]	MIC (C. gattii; [15]) [µg/mL]	MIC (C. gattii; [16]) [µg/mL]	MIC (C. gattii; [17]) [µg/mL]	MIC at 24-48 hours (Cryptococcus neoformans [4]; Cryptococcus neoformans SA1) [µg/mL]	MIC at 24-48 hours (Cryptococcus neoformans [4]; Cryptococcus neoformans SA2) [µg/mL]	MIC at 24-48 hours (Candida albicans [5]; Candida albicans ATCC 90028) [µg/mL]	MIC at 24-48 hours (Candida albicans [5]; Candida albicans SA3) [µg/mL]	MIC (Cryptococcus neoformans [6]; Cryptococcus neoformans SA1) [µg/mL]	MIC (Cryptococcus neoformans [6]; Cryptococcus neoformans SA2) [µg/mL]	Screen at 16 μg/mL [3]	other results
Cl.N=C(NN=Cc1cccc(F)c1)NN=Cc1cccc(F)c1 [NCL023]	16	16	8	8	8	8	32	32	8	8	16	16	8	16	16	32	32	16	16	No growth	MIC (Cryptococcus neoformans [1]; [8]): 8 µg/mL; MIC [3]: 8 µg/mL and 16 µg/mL; antifungal activity against the two isolates of Candida albicans (Candida albicans [5]): high antifungal activity; MIC (Candida albicans [7]; C. albicans SA3): 32 µg/mL; MIC (Candida albicans [7]; Candida albicans ATCC 90028): 32 µg/mL; MIC (Candida albicans [7]; [18]): 16 µg/mL; MIC (Candida albicans [7]; [19]): >16 µg/mL; MIC (Candida albicans [7]; [20]): 16 µg/mL; MIC (Candida albicans [7]; [21]): 16 µg/mL; MIC (Candida albicans [7]; [22]): 8 µg/mL; MIC (Candida albicans [7]; [23]): >16 µg/mL; MIC (Candida albicans [7]; [24]): >16 µg/mL; MIC (Candida albicans [7]; [25]): 16 µg/mL; MIC (Candida albicans [7]; [26]): 16 µg/mL; MIC (Candida albicans [7]; [27]): 16 µg/mL; activity against one or more isolates of Cryptococcus neoformans and Candida albicans (Candida albicans [7]; summary in words): highly active
Cl.N#Cc1ccc(C=NNC(=N)NN=Cc2ccc(C#N)cc2)cc1 [NCL024]	>32	32	32	16	32	32	>32	>32	32	16	8	32	32	>32	32	>32	>32	>32	32	Growth	MIC (Cryptococcus neoformans [1]; [8]): 32 µg/mL; MIC (Candida albicans [7]; C. albicans SA3): >32 µg/mL; MIC (Candida albicans [7]; Candida albicans ATCC 90028): >32 µg/mL; MIC (Candida albicans [7]; [18]): 8 µg/mL; MIC (Candida albicans [7]; [19]): 4 µg/mL; MIC (Candida albicans [7]; [20]): 16 µg/mL; MIC (Candida albicans [7]; [21]): >16 µg/mL; MIC (Candida albicans [7]; [22]): 8 µg/mL; MIC (Candida albicans [7]; [23]): >16 µg/mL; MIC (Candida albicans [7]; [24]): >16 µg/mL; MIC (Candida albicans [7]; [25]): 4 µg/mL; MIC (Candida albicans [7]; [26]): 16 µg/mL; MIC (Candida albicans [7]; [27]): >16 µg/mL; activity against one or more isolates of Cryptococcus neoformans and Candida albicans (Candida albicans [7]; summary in words): highly active
Cl.N=C(NN=Cc1cc(O)c(O)c(O)c1)NN=Cc1cc(O)c(O)c(O)c1 [NCL097]	16	16	16 to 32	32	32	32	8	32	32	16	16	32	32	16	16	32	8	16	16	No growth	MIC (Cryptococcus neoformans [1]; human clinical isolate C. neoformans serotype A/D hybrid, listed as NCL97): 16 µg/mL and 32 µg/mL; MIC [3]: 0.5 µg/mL; antifungal activity against the two isolates of Candida albicans (Candida albicans [5]): high antifungal activity; MIC (Candida albicans [7]; C. albicans SA3): 8 µg/mL; MIC (Candida albicans [7]; Candida albicans ATCC 90028): 32 µg/mL; MIC (Candida albicans [7]; [18]): 8 µg/mL; MIC (Candida albicans [7]; [19]): 8 µg/mL; MIC (Candida albicans [7]; [20]): 4 µg/mL; MIC (Candida albicans [7]; [21]): 8 µg/mL; MIC (Candida albicans [7]; [22]): 4 to 8 µg/mL; MIC (Candida albicans [7]; [23]): 8 µg/mL; MIC (Candida albicans [7]; [24]): 8 µg/mL; MIC (Candida albicans [7]; [25]): 4 µg/mL; MIC (Candida albicans [7]; [26]): 8 to 16 µg/mL; MIC (Candida albicans [7]; [27]): 8 µg/mL; activity against all tested isolates of Cryptococcus neoformans and Candida albicans (Candida albicans [7]; summary in words): active; activity against one or more isolates of Cryptococcus neoformans and Candida albicans (Candida albicans [7]; summary in words): highly active

More lines, main results first:

MIC (Cryptococcus neoformans [1]; Cryptococcus neoformans SA1) [µg/mL]	MIC (Cryptococcus neoformans [1]; Cryptococcus neoformans SA2) [µg/mL]	MIC (Cryptococcus neoformans [1]; [9]) [µg/mL]	MIC (Cryptococcus neoformans [1]; [10]) [µg/mL]	MIC (Cryptococcus neoformans [1]; [11]) [µg/mL]	MIC (Cryptococcus neoformans [1]; [12]) [µg/mL]	MIC (Candida albicans [2]; C. albicans SA3) [µg/mL]	MIC (Candida albicans [2]; Candida albicans ATCC 90028) [µg/mL]	MIC (C. gattii; [13]) [µg/mL]	MIC (C. gattii; [14]) [µg/mL]	MIC (C. gattii; [15]) [µg/mL]	MIC (C. gattii; [16]) [µg/mL]	MIC (C. gattii; [17]) [µg/mL]	MIC at 24-48 hours (Cryptococcus neoformans [4]; Cryptococcus neoformans SA1) [µg/mL]	MIC at 24-48 hours (Cryptococcus neoformans [4]; Cryptococcus neoformans SA2) [µg/mL]	MIC at 24-48 hours (Candida albicans [5]; Candida albicans ATCC 90028) [µg/mL]	MIC at 24-48 hours (Candida albicans [5]; Candida albicans SA3) [µg/mL]	MIC (Cryptococcus neoformans [6]; Cryptococcus neoformans SA1) [µg/mL]	MIC (Cryptococcus neoformans [6]; Cryptococcus neoformans SA2) [µg/mL]	Structure (SMILES)	Screen at 16 μg/mL [3]	other results
4	4	4	4	4	4	>32	>32	4	2 to 4	4	4 to 8	2 to 4	4	4	>32	>32	4	4	CN(C)c1ccc(/C=N/NC(=N)N/N=C/c2ccc(N(C)C)cc2)cc1.Cl [NCL113]	No growth	MIC (Cryptococcus neoformans [1]; [8]): 4 µg/mL; MIC [3]: 4 µg/mL and 8 µg/mL; MIC (Candida albicans [7]; C. albicans SA3): >32 µg/mL; MIC (Candida albicans [7]; Candida albicans ATCC 90028): >32 µg/mL; MIC (Candida albicans [7]; [18]): 8 µg/mL; MIC (Candida albicans [7]; [19]): 8 to 16 µg/mL; MIC (Candida albicans [7]; [20]): 8 µg/mL; MIC (Candida albicans [7]; [21]): 8 µg/mL; MIC (Candida albicans [7]; [22]): 8 µg/mL; MIC (Candida albicans [7]; [23]): 16 µg/mL; MIC (Candida albicans [7]; [24]): 16 µg/mL; MIC (Candida albicans [7]; [25]): 8 µg/mL; MIC (Candida albicans [7]; [26]): 8 µg/mL; MIC (Candida albicans [7]; [27]): 8 µg/mL; activity against one or more isolates of Cryptococcus neoformans and Candida albicans (Candida albicans [7]; summary in words): highly active
8	8	>32	>32	>32	>32	>32	>32	>32	>32	>32	>32	>32	8	8	>32	>32	8	8	COc1ccc(C=NNC(=N)NN=Cc2ccc(OC)c(OC)c2)cc1OC.Cl [NCL115]	Growth	MIC (Cryptococcus neoformans [1]; [8]): >32 µg/mL; MIC (Candida albicans [7]; C. albicans SA3): >32 µg/mL; MIC (Candida albicans [7]; Candida albicans ATCC 90028): >32 µg/mL; MIC (Candida albicans [7]; [18]): >16 µg/mL; MIC (Candida albicans [7]; [19]): 8 µg/mL; MIC (Candida albicans [7]; [20]): >16 µg/mL; MIC (Candida albicans [7]; [21]): >16 µg/mL; MIC (Candida albicans [7]; [22]): >16 µg/mL; MIC (Candida albicans [7]; [23]): >16 µg/mL; MIC (Candida albicans [7]; [24]): >16 µg/mL; MIC (Candida albicans [7]; [25]): >16 µg/mL; MIC (Candida albicans [7]; [26]): >16 µg/mL; MIC (Candida albicans [7]; [27]): >16 µg/mL; activity against one or more isolates of Cryptococcus neoformans and Candida albicans (Candida albicans [7]; summary in words): highly active
